Assay results published in patent US9957271B2, “Substituted bicyclic aza-heterocycles and analogues as sirtuin modulators” (GlaxoSmithKline, LLC, priority 2012, dated 2018).

How the values were obtained:
[1] = target: T1, SIRT1 (Homo sapiens, UniProt Q96EB6); experiment: TAMRA based mass spectrometry assay of SIRT1 activity; format: biochemical; details: for Emax: read-out: TAMRA % Fold Act
T1 sequence (Q96EB6 1-747): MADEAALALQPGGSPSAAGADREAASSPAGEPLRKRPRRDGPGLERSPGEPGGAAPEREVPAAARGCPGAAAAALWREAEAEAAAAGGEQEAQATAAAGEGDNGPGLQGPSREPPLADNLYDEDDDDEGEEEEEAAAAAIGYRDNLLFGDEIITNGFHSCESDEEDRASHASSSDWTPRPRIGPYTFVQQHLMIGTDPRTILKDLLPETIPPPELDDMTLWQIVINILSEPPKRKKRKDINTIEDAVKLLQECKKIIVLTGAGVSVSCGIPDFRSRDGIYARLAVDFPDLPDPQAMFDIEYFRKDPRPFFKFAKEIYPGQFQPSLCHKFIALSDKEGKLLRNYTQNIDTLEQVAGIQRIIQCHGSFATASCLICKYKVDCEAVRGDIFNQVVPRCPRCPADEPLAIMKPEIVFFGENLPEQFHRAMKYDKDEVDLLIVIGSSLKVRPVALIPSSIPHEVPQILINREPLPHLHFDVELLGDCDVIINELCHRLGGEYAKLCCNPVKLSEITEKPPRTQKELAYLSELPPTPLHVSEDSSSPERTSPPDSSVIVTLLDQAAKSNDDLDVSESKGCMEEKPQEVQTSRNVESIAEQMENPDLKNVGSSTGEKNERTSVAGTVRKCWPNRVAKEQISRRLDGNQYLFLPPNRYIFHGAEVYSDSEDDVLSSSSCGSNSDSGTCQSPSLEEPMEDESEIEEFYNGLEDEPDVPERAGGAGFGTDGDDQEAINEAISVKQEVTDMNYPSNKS
How it was run: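 Recombinant N-terminal His-tagged human SIRT1 (10 nM, E. coli) incubated 25 min at 25 °C with 0.5 μM 5TMR-labelled p53-derived acetyl-peptide and 120 μM βNAD+ in Tris-acetate pH 8 buffer with DTT and 0.05% BSA, compound at varying concentrations. Stopped with formic acid; deacetylated peptide or OAADPR measured by mass spectrometry relative to DMSO controls.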

[2] = target: T1, SIRT1; experiment: Trp mass spectrometry assay of SIRT1 activity; format: biochemical; details: for Emax: read-out: Trp % Fold Act
How it was run: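 His-tagged SIRT1 expressed in E. coli BL21(DE3), 10 nM, incubated 25 min at 25° C. with 0.5 μM Ac-RHKK(Ac)W-NH2 peptide and 120 μM βNAD+ in 50 mM HEPES pH 7.5, […], 1 mM DTT, 0.05% BSA; formic acid stop. OAADPR or deacetylated peptide measured by mass spectrometry; EC1.5 and percent maximum activation versus DMSO control.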

[3] = TAMRA assay, concentration giving 150% activation of SIRT1
[4] = TAMRA assay, percent maximum fold activation
[5] = Trp assay, concentration giving 150% activation of SIRT1
[6] = Trp assay, percent maximum fold activation
[7] = concentration of test compound giving 150% activation of SIRT1, TAMRA peptide substrate
[8] = percent maximum fold activation of SIRT1, TAMRA peptide substrate
[9] = concentration of test compound giving 150% activation of SIRT1, Trp peptide substrate
[10] = percent maximum fold activation of SIRT1, Trp peptide substrate
[11] = TAMRA peptide substrate, concentration giving 150% activation of SIRT1
[12] = TAMRA peptide substrate, percent maximum fold activation
[13] = Trp peptide substrate, concentration giving 150% activation of SIRT1
[14] = Trp peptide substrate, percent maximum fold activation

TAMRA EC1.5 (μM) [1, 3]	Emax [1, 4] [%]	Trp EC1.5 (μM) [2, 5]	Emax [2, 6] [%]	TAMRA EC1.5 [1, 11]	Emax [1, 12] [%]	Trp EC1.5 [2, 13]	Emax [2, 14] [%]	SMILES	also measured
				B (EC1.5 1-25 μM)	< 350	B (EC1.5 1-25 μM)	≥ 350	Cc1nc2c(C)cc(-c3ccccc3C(F)(F)F)nn2c1C(=O)NCc1ccccn1 [Compound 561]	
				A (EC1.5<1 μM)	≥ 350	B (EC1.5 1-25 μM)	< 350	Cc1cc(-c2ccccc2C(F)(F)F)nn2c(C(=O)Nc3ccc(F)cn3)cnc12 [Compound 542]	
A (EC1.5<1 μM)	≥ 350	C (EC1.5>25 μM)	< 350					Cc1cc(NC(=O)c2cnc3ccc(-c4ccccc4C(F)(F)F)nn23)nc(C)n1 [Compound 238]	
				A (EC1.5<1 μM)	≥ 350	B (EC1.5 1-25 μM)	< 350	Cc1cc(C)nc(NC(=O)c2cnc3c(C)cc(-c4ccccc4C(F)(F)F)nn23)c1 [Compound 516]	
				A (EC1.5<1 μM)	≥ 350	A (EC1.5<1 μM)	≥ 350	O=C(Nc1cccnc1)c1cnn2ccc(-c3ccccc3OC(F)(F)F)nc12 [Compound 530]	
A (EC1.5<1 μM)	≥ 350	B (EC1.5 1-25 μM)	≥ 350					O=C(Nc1cncc(F)c1)c1cnn2ccc(-c3ccccc3C(F)(F)F)nc12 [Compound 642]	
				A (EC1.5<1 μM)	≥ 350	C (EC1.5>25 μM)	< 350	Cc1cc(C)nc(C(=O)Nc2cnn3ccc(-c4ccccc4C(F)(F)F)nc23)c1 [Compound 524]	
				A (EC1.5<1 μM)	≥ 350	A (EC1.5<1 μM)	≥ 350	Cc1nc2c(C)cc(-c3ccccc3C(F)(F)F)nn2c1C(=O)Nc1cnccn1 [Compound 586]	
B (EC1.5 1-25 μM)	≥ 350	C (EC1.5>25 μM)	< 350					O=C(Nc1cnn2ccc(-c3ccccc3OC(F)(F)F)nc12)c1cscn1 [Compound 785]	
B (EC1.5 1-25 μM)	≥ 350	B (EC1.5 1-25 μM)	≥ 350					O=C(Nc1cccnc1)c1cnn2ccc(-c3ccccc3C(F)(F)F)nc12 [Compound 239]	

The next lines start with the compound.

SMILES	TAMRA EC1.5 (μM) [1, 3]	Emax [1, 4] [%]	Trp EC1.5 (μM) [2, 5]	Emax [2, 6] [%]	TAMRA EC1.5 [1, 11]	Emax [1, 12] [%]	Trp EC1.5 [2, 13]	Emax [2, 14] [%]	also measured
COc1cc(OC)nc(NC(=O)c2cnc3ccc(-c4ccccc4C(F)(F)F)nn23)n1 [Compound 198]	A (EC1.5<1 μM)	≥ 350	B (EC1.5 1-25 μM)	< 350					
Cc1cc(C)c(NC(=O)c2cnc3ccc(-c4ccccc4C(F)(F)F)nn23)cn1 [Compound 125]									TAMRA EC1.5 (μM) [1, 7]: B (EC1.5 1-25 μM); Emax [1, 8]: < 350%; Trp EC1.5 (μM) [2, 9]: B (EC1.5 1-25 μM); Emax [2, 10]: < 350%
CS(=O)(=O)c1ccccc1-c1ccc2ncc(C(=O)Nc3ccnc(N4CCC4)c3)n2n1 [Compound 186]									TAMRA EC1.5 (μM) [1, 7]: B (EC1.5 1-25 μM); Emax [1, 8]: < 350%; Trp EC1.5 (μM) [2, 9]: C (EC1.5>25 μM); Emax [2, 10]: < 350%
O=C(Nc1nc(CN2CCOCC2)cs1)c1cnc2ccc(-c3ccccc3C(F)(F)F)nn12 [Compound 20]									TAMRA EC1.5 (μM) [1, 7]: A (EC1.5<1 μM); Emax [1, 8]: ≥ 350%; Trp EC1.5 (μM) [2, 9]: B (EC1.5 1-25 μM); Emax [2, 10]: < 350%
O=C(Nc1ccncc1)c1cnc2ccc(-c3ccccc3C(F)(F)F)nn12 [Compound 77]									TAMRA EC1.5 (μM) [1, 7]: B (EC1.5 1-25 μM); Emax [1, 8]: ≥ 350%; Trp EC1.5 (μM) [2, 9]: B (EC1.5 1-25 μM); Emax [2, 10]: < 350%
O=C(Nc1ccnc(OCC(F)(F)F)c1)c1cnc2ccc(-c3ccccc3C(F)(F)F)nn12 [Compound 296]	B (EC1.5 1-25 μM)	< 350	B (EC1.5 1-25 μM)	< 350					
Cc1cccc(NC(=O)c2c(C)nc3c(C)cc(-c4ccccc4OC(F)(F)F)nn23)n1 [Compound 480]					A (EC1.5<1 μM)	≥ 350	B (EC1.5 1-25 μM)	< 350	
O=C(Nc1cnc2ccc(-c3ccccc3C(F)(F)F)nn12)c1cncc(OC[C@@H](O)CO)n1 [Compound 645]	A (EC1.5<1 μM)	≥ 350	A (EC1.5<1 μM)	≥ 350					
Cc1cc(NC(=O)c2cnc3ccc(-c4ccccc4C(F)(F)F)nn23)cc(OCC(O)CO)n1 (stereo not shown) [Compound 406]					A (EC1.5<1 μM)	≥ 350	A (EC1.5<1 μM)	≥ 350	
Cc1nc2c(C)cc(-c3ccccc3OC(F)(F)F)nn2c1C(=O)Nc1ccncn1 [Compound 478]					A (EC1.5<1 μM)	≥ 350	A (EC1.5<1 μM)	≥ 350	
Cc1cc(NC(=O)c2c(C)nc3c(C)cc(-c4ccccc4OC(F)(F)F)nn23)ccn1 [Compound 481]					A (EC1.5<1 μM)	≥ 350	A (EC1.5<1 μM)	≥ 350	
Cc1cncc(C(=O)Nc2cnc3ccc(-c4ccccc4C(F)(F)F)nn23)c1 [Compound 231]	B (EC1.5 1-25 μM)	≥ 350	B (EC1.5 1-25 μM)	< 350					
O=C(Nc1cnc2ccc(-c3ccccc3F)nn12)c1nccs1 [Compound 303]	B (EC1.5 1-25 μM)	< 350	C (EC1.5>25 μM)	< 350					
COc1ccc(NC(=O)c2c(C)nc3ccc(-c4ccccc4C(F)(F)F)nn23)nn1 [Compound 665]	A (EC1.5<1 μM)	≥ 350	B (EC1.5 1-25 μM)	< 350					
Cc1cc2ncc(NC(=O)c3cccc(OCC(O)CO)n3)n2nc1-c1ccccc1C(F)(F)F (stereo not shown) [Compound 449]					A (EC1.5<1 μM)	≥ 350	A (EC1.5<1 μM)	≥ 350	
Cc1cc2ncc(NC(=O)c3cccc(N4CCC4)n3)n2nc1-c1ccccc1C(F)(F)F [Compound 448]					A (EC1.5<1 μM)	≥ 350	B (EC1.5 1-25 μM)	≥ 350	
O=C(Nc1cnc(OCC(O)CO)cn1)c1cnc2ccc(-c3ccccc3C(F)(F)F)nn12 (stereo not shown) [Compound 297]	A (EC1.5<1 μM)	≥ 350	B (EC1.5 1-25 μM)	< 350					
O=C(Nc1cccc(N2CCOCC2)n1)c1cnc2ccc(N3CCC(F)(F)C3)nn12 [Compound 489]					B (EC1.5 1-25 μM)	< 350	A (EC1.5<1 μM)	≥ 350	
Cc1nc2ccc(-c3ccccc3C(F)(F)F)nn2c1NC(=O)c1nccs1 [Compound 380]	B (EC1.5 1-25 μM)	≥ 350	C (EC1.5>25 μM)	< 350					
O=C(Nc1ncc(CN2CCOCC2)s1)c1cnc2ccc(-c3ccccc3C(F)(F)F)nn12 [Compound 150]									TAMRA EC1.5 (μM) [1, 7]: B (EC1.5 1-25 μM); Emax [1, 8]: < 350%; Trp EC1.5 (μM) [2, 9]: B (EC1.5 1-25 μM); Emax [2, 10]: < 350%
Cc1nc2ccc(-c3ccccc3OC(F)(F)F)nn2c1C(=O)Nc1ccncc1F [Compound 466]					A (EC1.5<1 μM)	≥ 350	A (EC1.5<1 μM)	≥ 350	
